In experiment [1] the test system is HER2 receptor. Nature of the experiment: HER2 scFv binding in cell-based assay (Alexa-fluor 488 labeled scFv). Also on record: species or system human. The protocol: (§1) As proof of concept, HER2 scFv binding and internalization in cell-based assays in vitro was carried out.
The target of experiment [2] is T1, HER2 receptor (Homo sapiens, UniProt P04626).
T1 construct: endogenous in cells; host or cells: Sk-BR3, Sk-OV3 (HER2+); MCF7 (HER2-, negative control)
Description: HER2 scFv ligand internalization in cell-based assay (pHrhodo label). The protocol:
as §1

Experiment [3] has as its system HER2 receptor. Described as above. The settings on record: MCF7 HER2- cell line; FIG. 1F. Also on record: species or system human. The protocol:
as §1

With “trastuzumab-derived α-HER2 scFv: trastuzumab-derived single-chain variable fragment directed against HER2 (SEQ ID NO:1 core sequence)”, the HER2 receptor engagement result in the experiment on HER2 receptor [1] (MCF7 cells, do not express HER2 receptor (HER2-), FIG. 1C) is listed as “not in MCF7 cells”; with HER2 receptor [1] (Sk-BR3 HER2 expressing (HER2+) cell line, FIG. 1A), “HER2 receptor engagement”; in the experiment with HER2 receptor [1] (Sk-OV3 HER2 expressing (HER2+) cell line, FIG. 1B) it was “HER2 receptor engagement”. Besides, the ligand internalization result in the experiment with HER2 receptor [2] (Sk-BR3 cells (HER2+), FIG. 1D) is recorded as “showed ligand internalization”; with HER2 receptor [2] (Sk-OV3 cells (HER2+), FIG. 1E), “showed ligand internalization”; with HER2 receptor [3], “did not”.

For the origin of these results see patent US20240382432A1, “SINGLE CHAIN VARIABLE FRAGMENT (SCFV) MODIFIED LIPID NANOPARTICLE COMPOSITIONS AND USES THEREOF” (Generation Bio Co., priority 2021, published 2024).
